Consider 10 compounds from patent US10889589B2, “Bicyclic urea, thiourea, guanidine and cyanoguanidine compounds useful for the treatment of pain” (Array BioPharma Inc., priority 2012, dated 2021).

Each structure is given as a SMILES string. pIC50: −log10 of the molar value. Some results are limits rather than exact numbers.

The target in this assay is recombinant human TrkA (Homo sapiens (Human), UniProt P04629). Kind of assay: TrkA Kinase Binding Assay (LanthaScreen Eu). The following applies: averaged IC50; read-out: TrkA Enzyme IC50. Here is the method: TrkA binding activity was determined in a TrkA LanthaScreen™ Eu Kinase Binding Assay. 5 nM His-tagged recombinant human TrkA (6HIS tagged cytoplasmic domain from Invitrogen, Catalog No. PV3144) was incubated with 4 nM Alexa-Fluor® Tracer 236 (Invitrogen Cat. No. PV5592), 2 nM biotinylated anti-His (Invitrogen Cat. No. PV6090), and 2 nM europium-labeled Streptavidin (Invitrogen Cat. No. PV5899), in buffer (25 mM MOPS, pH 7.5, 5 mM MgCl2, 0.005% Triton X-100). Three fold serial dilutions of compounds of the invention in DMSO were added to a final percentage of 2% DMSO. After 60-minute incubation at 22° C., the reaction was measured using the EnVision mutlimode plate reader (PerkinElmer) via TR-FRET dual wavelength detection at […]. The percent of control was calculated using a ratiometric emission factor. The IC50 values were determined by fitting a four parameter model to the percent of control data.
recombinant human TrkA, sequence (P04629 440-796): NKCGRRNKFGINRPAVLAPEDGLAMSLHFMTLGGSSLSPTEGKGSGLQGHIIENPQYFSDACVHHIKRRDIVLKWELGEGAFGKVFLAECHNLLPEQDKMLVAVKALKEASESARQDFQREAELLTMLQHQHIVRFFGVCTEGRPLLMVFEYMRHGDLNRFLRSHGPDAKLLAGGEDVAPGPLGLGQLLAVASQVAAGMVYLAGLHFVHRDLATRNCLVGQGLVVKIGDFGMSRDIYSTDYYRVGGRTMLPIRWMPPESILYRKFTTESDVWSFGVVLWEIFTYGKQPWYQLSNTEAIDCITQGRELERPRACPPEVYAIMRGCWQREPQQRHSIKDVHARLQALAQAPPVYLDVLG
Table A provides averaged IC50 values for compounds of the invention when tested in the assay of Example A, where A represents an averaged IC50 value <100 nM; B represents an averaged IC50 value from 100 to 1,000 nM, and C represents an averaged IC50 value between >1,000 nM and 3,000 nM.
On to `COc1ncc(-c2nn(-c3ccccc3)c(NC(=O)N[C@@H]3c4ccccc4C4(CC4)[C@H]3O)c2C)cn1` (relative stereo) [Example 57, 1-(trans-2′-hydroxy-2′,3′-dihydrospiro[cyclopropane-1,1′-inden]-3′-yl)-3-(3-(2-methoxypyrimidin-5-yl)-4-methyl-1-phenyl-1H-pyrazol-5-yl)urea], for which the pIC50 is greater than 7.00.

For `COC(=O)c1ccc2c(c1)[C@@H](NC(=O)Nc1c(C)c(C)nn1-c1ccccc1)[C@H](O)CC2(C)C` (relative stereo) [Example 99, trans-methyl 8-(3-(3,4-dimethyl-1-phenyl-1H-pyrazol-5-yl)ureido)-7-hydroxy-5,5-dimethyl-5,6,7,8-tetrahydronaphthalene-2-carboxylate], the pIC50 was greater than 7.00.

As for `COc1nn(-c2ccccc2)c(NC(=O)N[C@@H]2c3cc(F)c(F)cc3C3(CC3)[C@H]2O)c1C` (relative stereo) [Example 62, 1-(trans-5′,6′-difluoro-2′-hydroxy-2′,3′-dihydrospiro[cyclo-propane-1,1′-inden]-3′-yl)-3-(3-methoxy-4-methyl-1-phenyl-1H-pyrazol-5-yl)urea], the pIC50 is greater than 7.00.

Consider `Cc1ncc(-c2nn(-c3ccccc3)c(NC(=O)N[C@@H]3c4ccccc4C4(CC4)[C@H]3O)c2C)cn1` (relative stereo) [Example 56, 1-(trans-2′-hydroxy-2′,3′-dihydrospiro[cyclopropane-1,1′-inden]-3′-yl)-3-(4-methyl-3-(2-methylpyrimidin-5-yl)-1-phenyl-1H-pyrazol-5-yl)urea], for which the pIC50 was greater than 7.00.

`Cc1c(-c2cnn(C)c2)nn(-c2ccccc2)c1NC(=O)N[C@@H]1c2cc(F)ccc2C2(CC2)[C@H]1O` (relative stereo) [Example 63, 1-(1′,4-dimethyl-1-phenyl-1H1′H-[3,4′-bipyrazol]-5-yl)-3-(trans-5′-fluoro-2′-hydroxy-2′,3′-dihydrospiro[cyclopropane-1,1′-inden]-3′-yl)urea]: the pIC50 is greater than 7.00.

For the compound `Cc1nn(-c2ccccc2)c(NC(=O)N[C@@H]2c3cc(C(N)=O)ccc3C(C)(C)C[C@H]2O)c1C` (relative stereo) [Example 98, trans-8-(3-(3,4-dimethyl-1-phenyl-1H-pyrazol-5-yl)ureido)-7-hydroxy-5,5-dimethyl-5,6,7,8-tetrahydronaphthalene-2-carboxamide], the pIC50 was 5.52 to 6.00.

Take `Cc1c(NC(=O)N[C@@H]2c3ccccc3C(C)(C)C[C@H]2O)n(-c2ccccc2)[nH]c1=O` (relative stereo) [Example 95, 1-(trans-2-hydroxy-4,4-dimethyl-1,2,3,4-tetrahydronaphthalen-1-yl)-3-(4-methyl-5-oxo-2-phenyl-2,5-dihydro-1H-pyrazol-3-yl)urea]: the pIC50 is greater than 7.00.

For the compound `Cc1c(OCC2CCN(C)CC2)nn(-c2ccccc2)c1NC(=O)N[C@@H]1c2ccccc2CC[C@H]1O` (relative stereo) [Example 123, 1-(trans-2-hydroxy-1,2,3,4-tetrahydro-naphthalen-1-yl)-3-(4-methyl-3-((1-methylpiperidin-4-yl)methoxy)-1-phenyl-1H-pyrazol-5-yl)urea], the pIC50 is greater than 7.00.

For `Cc1c(-c2cnn(C)c2)nn(-c2ccccc2)c1NC(=O)N[C@@H]1c2cc(F)c(F)cc2C2(CC2)[C@H]1O` (relative stereo) [Example 58, 1-(trans-5′,6′-difluoro-2′-hydroxy-2′,3′-dihydrospiro[cyclopropane-1,1′-inden]-3′-yl)-3-(1′,4-dimethyl-1-phenyl-1H, 1′H-[3,4′-bipyrazol]-5-yl)urea], the pIC50 was greater than 7.00.

For the compound `Cc1c(-c2cnn(C)c2)nn(-c2ccccc2)c1NC(=O)N[C@@H]1c2ccc(F)cc2C2(CC2)[C@H]1O` (relative stereo) [Example 64, 1-(1′,4-dimethyl-1-phenyl-1H,1′H-[3,4′-bipyrazol]-5-yl)-3-(trans-6′-fluoro-2′-hydroxy-2′,3′-dihydrospiro[cyclopropane-1,1′-inden]-3′-yl)urea], the pIC50 was greater than 7.00.
